Experimental data published in paper PMC7582727, “Functional Impact of BeKm-1, a High-Affinity hERG Blocker, on Cardiomyocytes Derived from Human-Induced Pluripotent Stem Cells” (International Journal of Molecular Sciences, 2020).
Entries after “also recorded” stand apart in the source; their conditions may differ. Positions of bridges follow the written chain, without caps; N, C: chain ends. Residues, ends and D or L forms follow the SMILES beside them.

Assays:
human hERG channel = human hERG channel (Homo sapiens, UniProt Q12809); assay: in vitro; details: human
human hERG channel, sequence (Q12809 whole entry): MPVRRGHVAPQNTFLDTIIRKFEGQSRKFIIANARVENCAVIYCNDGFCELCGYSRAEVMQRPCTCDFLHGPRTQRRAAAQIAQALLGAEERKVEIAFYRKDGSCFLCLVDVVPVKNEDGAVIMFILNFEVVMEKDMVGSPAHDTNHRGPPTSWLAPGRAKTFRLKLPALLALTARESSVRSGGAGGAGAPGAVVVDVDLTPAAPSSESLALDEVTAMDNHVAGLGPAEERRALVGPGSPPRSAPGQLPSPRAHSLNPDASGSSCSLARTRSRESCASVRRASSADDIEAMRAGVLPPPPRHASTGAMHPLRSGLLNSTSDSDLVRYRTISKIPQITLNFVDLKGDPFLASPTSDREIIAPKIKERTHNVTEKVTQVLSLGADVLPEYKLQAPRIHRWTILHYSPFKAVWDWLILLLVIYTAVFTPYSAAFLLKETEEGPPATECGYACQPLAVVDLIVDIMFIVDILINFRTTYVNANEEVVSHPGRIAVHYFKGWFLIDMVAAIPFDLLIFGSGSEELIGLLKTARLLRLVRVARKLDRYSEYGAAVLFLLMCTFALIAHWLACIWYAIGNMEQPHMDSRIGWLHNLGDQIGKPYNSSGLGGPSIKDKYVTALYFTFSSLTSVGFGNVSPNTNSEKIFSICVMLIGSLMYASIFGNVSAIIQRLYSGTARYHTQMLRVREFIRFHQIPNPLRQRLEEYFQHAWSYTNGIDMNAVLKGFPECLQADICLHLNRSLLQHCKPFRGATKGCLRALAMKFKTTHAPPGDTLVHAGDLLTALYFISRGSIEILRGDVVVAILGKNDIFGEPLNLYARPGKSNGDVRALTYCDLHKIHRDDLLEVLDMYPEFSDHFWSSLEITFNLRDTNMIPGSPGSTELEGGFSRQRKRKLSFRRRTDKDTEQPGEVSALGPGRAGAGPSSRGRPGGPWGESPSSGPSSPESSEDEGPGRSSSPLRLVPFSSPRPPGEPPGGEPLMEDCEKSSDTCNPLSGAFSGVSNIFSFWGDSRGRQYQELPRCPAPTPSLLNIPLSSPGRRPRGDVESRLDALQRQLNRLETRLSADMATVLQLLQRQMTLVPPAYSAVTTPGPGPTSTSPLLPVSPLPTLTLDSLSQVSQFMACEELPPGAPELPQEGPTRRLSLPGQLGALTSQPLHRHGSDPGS
Procedure: (§1) Voltage pulses and whole-cell recordings were achieved using the PatchControl384 v1.5.3 software (Nanion Technologies, Munich, Germany) and the Biomek v1.0 interface (Beckman Coulter, Villepinte, France). […] After cell catching, sealing, whole-cell formation, liquid application, recording, and data acquisition were all performed sequentially and automatically. […] A single concentration of peptide was tested on each cell for building the full-inhibition curves.

[1] = biological target: human hERG channel (Kv11.1) (Homo sapiens, UniProt Q12809); assay: in vitro
human hERG channel (Kv11.1), sequence (Q12809 whole entry): as above
Procedure: as §1

hiPS-CMs monolayer = assay: Electric field potential of hiPS-CM monolayers (CardioExcyte96); assay type: cell-based, human
Description: The excitability abnormalities recorded on single hiPS-CM APs should translate into larger abnormalities when these cells are interacting with each other in monolayers. To assess this issue, we investigated the electrical excitability of hiPS-CM monolayers using the CardioExcyte96 system (Nanion). This system monitors both the electric field potential (EFP), which reflects the concerted electrical activity of the cell monolayer, and the impedance changes due to cell contractions, which will be described below. […] As saturating concentrations of BeKm-1 (100 nM) induced the arrest of spontaneous APs in individual cells, we were interested to see what may happen on a monolayer of hiPS-CMs.
hiPS-CMs: All experiments were performed on the human-induced pluripotent stem cell (hiPSC) clone C2a that has been previously characterized, including cardiac differentiation and electrophysiology data. Cells were expanded on stem cell-qualified matrigel-coated plates (0.05 mg/mL; BD Bioscience, Le Pont de Claix, France) and cultured in StemMACS iPS-BREW XF medium (Miltenyi Biotec, Paris, France). Cells were passaged every […] using Gentle Cell Dissociation Buffer (StemCell Technologies, Grenoble, France). Prior to differentiation, cells were cultured as a monolayer in StemMACS iPS-brew supplemented with 1 × Y-27632 Rho-associated, coiled-coil containing protein kinase (ROCK) inhibitor (StemCell Technologies, Grenoble, France). When hiPSCs reached proper confluence, they were differentiated into cardiomyocytes using previously described « Matrix sandwich » protocol. At day 20 ± 1 of differentiation, beating cardiomyocytes were manually dissected and isolated from non-beating cells. Briefly, cardiomyocytes were washed with phosphate-buffered saline (PBS) and treated with TrypLE Express (10x) (Thermo Fisher Scientific, Illkirch-Graffenstaden, France) for 5 min at 37 °C. The enzyme was inactivated by adding RPMI1640 medium containing 20% (vol/vol) KnockOut Serum Replacement (KSR) (Thermo Fisher Scientific, Illkirch-Graffenstaden, France). […]
The beating properties and the electrical field potentials of hiPS-CMs were evaluated with a CardioExcyte96 system. […] Meanwhile, cells were monitored to ensure the full stabilization of beating parameters until BeKm-1 was tested at various concentrations ([…]). Tfall and Trise were determined as the time between 10% and 90% of contraction or relaxation, respectively. Pulse width (PWx) was determined as the time corresponding to the width of the signal at 90% of relaxation. Electric field potentials (EFPs) were recorded using CardioExcyte96 system. For both contraction and EFPs, 10 sequences of 30 s of acquisition were analyzed before and after BeKm-1 addition. […]

hiPS-CMs = assay: Intracellular Ca^2+ transients in hiPS-CMs (Fluo-4, confocal); assay type: cell-based, human; details: 5 nM
Procedure: As Ca^2+ influx abnormalities are likely to be at the root of electrophysiological disorders observed in the presence of BeKm-1, we sought to investigate the effects of this compound on hiPS-CM calcium dynamics. In order to test this, intracellular Ca^2+ transients (CaT) were monitored by confocal microscopy using the Fluo4 Ca^2+-sensitive dye in presence of 5 nM BeKm-1. […] The average interval was raised from 3.3 ± 1.7 sec (n = 8, vehicle) to 4.9 ± 2.2 sec (n = 8, 5 nM BeKm-1) (Figure S4C). In addition, we observed a reduction of CaT amplitude from 1.8 ± 0.2 (n = 8, vehicle) to 0.8 ± 0.2 (n = 8, 5 nM BeKm-1) (Figure S4D). […] The altered shape of the CaT was due to a slower time to peak (1.1 ± 0.1 s with vehicle vs. 2.2 ± 0.4 s with 5 nM BeKm-1, n = 8) (Figure S4E), possibly indicating a slower release from internal stores associated to a reduced entry by VGCC (largely due to the impact of RMP depolarization).
hiPS-CMs: All experiments were performed on the human-induced pluripotent stem cell (hiPSC) clone C2a that has been previously characterized, including cardiac differentiation and electrophysiology data. Cells were expanded on stem cell-qualified matrigel-coated plates (0.05 mg/mL; BD Bioscience, Le Pont de Claix, France) and cultured in StemMACS iPS-BREW XF medium (Miltenyi Biotec, Paris, France). Cells were passaged every […] using Gentle Cell Dissociation Buffer (StemCell Technologies, Grenoble, France). Prior to differentiation, cells were cultured as a monolayer in StemMACS iPS-brew supplemented with 1 × Y-27632 Rho-associated, coiled-coil containing protein kinase (ROCK) inhibitor (StemCell Technologies, Grenoble, France). When hiPSCs reached proper confluence, they were differentiated into cardiomyocytes using previously described « Matrix sandwich » protocol. At day 20 ± 1 of differentiation, beating cardiomyocytes were manually dissected and isolated from non-beating cells. Briefly, cardiomyocytes were washed with phosphate-buffered saline (PBS) and treated with TrypLE Express (10x) (Thermo Fisher Scientific, Illkirch-Graffenstaden, France) for 5 min at 37 °C. The enzyme was inactivated by adding RPMI1640 medium containing 20% (vol/vol) KnockOut Serum Replacement (KSR) (Thermo Fisher Scientific, Illkirch-Graffenstaden, France). The supernatant was removed, and cells were suspended in RPMI1640 medium containing 20% (vol/vol) KSR and ROCK inhibitor. Then, the cells were plated on specific supports suitable for functional assessments.
Calcium transients of hiPS-CMs were evaluated using the Fluo-4 reported dye and a Nikon A1R confocal microscope. Dissociated hiPS-CMs were plated and maintained on µ-slide 8-well IBIDI plates for 12 ± 1 days prior to experiments. On the day of the experiments, cells were loaded for 20 min with 3 µM Fluo-4 AM Ca^2+ indicator (Thermo Fisher Scientific, Illkirch-Graffenstaden, France) in culture medium at 37 °C. Then, to allow complete de-esterification of the Ca^2+ probe, the medium was replaced and cells were re-incubated at 37 °C for another 20 min. All recordings were performed in Tyrode’s solution, cells being placed at 37 °C in an experimental chamber. Confocal microscopy was performed using a Nikon A1R confocal inverted microscope (Nikon Corp, Tokyo, Japan) with a Nikon X60 Plan-Apo numerical aperture 1.4 oil-immersion objective (MicroPICell core facility). Fluo-4 AM was excited using the 488 nm line from an argon laser and fluorescence emission was measured at >505 nm. Images were acquired between 15.5 and 56.4 frames/s in X-Y mode, with a resolution of 1024 × 1024 pixels ([…]).

rabbit heart = tested on: rabbit heart; parameters: method as in PMID 21205913; details: ref [8]; cited from earlier work

Q: What does the source list for `CC[C@H](C)[C@H](NC(=O)[C@H](CC(=O)O)NC(=O)[C@@H](NC(=O)[C@@H]1CCCN1C(=O)[C@@H](N)CCCNC(=N)N)[C@@H](C)O)C(=O)N[C@@H](CCCCN)C(=O)N[C@H]1CSSC[C@@H]2NC(=O)[C@H](CCCNC(=N)N)NC(=O)CNC(=O)[C@H](CC(N)=O)NC(=O)[C@H]([C@@H](C)O)NC(=O)[C@H](CCCCN)NC(=O)CNC(=O)[C@H](Cc3ccccc3)NC(=O)[C@H](CCCNC(=N)N)NC(=O)[C@H](CO)NC(=O)[C@H](CCCCN)NC(=O)[C@@H]3CSSC[C@@H](C(=O)N[C@@H](Cc4ccccc4)C(=O)O)NC(=O)[C@H](CC(=O)O)NC(=O)[C@H](CSSC[C@H](NC(=O)[C@H](CCC(N)=O)NC(=O)[C@H](Cc4ccc(O)cc4)NC(=O)[C@H](CO)NC(=O)[C@H](CCC(=O)O)NC(=O)[C@H](CO)NC1=O)C(=O)N[C@@H](Cc1ccccc1)C(=O)N1CCC[C@H]1C(=O)N[C@@H](C(C)C)C(=O)N3)NC(=O)[C@H](Cc1ccccc1)NC(=O)CNC(=O)[C@H](CC(N)=O)NC(=O)[C@H](C(C)C)NC2=O` [BeKm-1] (H-RPTDIKCSESYQCFPVCKSRFGKTNGRCVNGFCDCF-OH; disulfide 7-28, 13-33, 17-35 (inferred); N-terminus and C-terminus assumed)?
A: IC50 at 13 min (human hERG channel): 1.9 ± 0.3 nM; Hill number, hERG current inhibition ([1]; HEK293-hERG, Hill equation fit of dose-response curve): 1.9; maximal block of hERG currents (plateau) ([1]; at maximally effective doses of the peptide (100 nM)): 90%; EFP duration (hiPS-CMs monolayer; 2 nM, 37 °C, vehicle 2.8 ± 0.1 s, n = 5, mean ± SEM): 3.4 ± 0.2 s; spontaneous depolarization in EFP (hiPS-CMs monolayer; 2 nM, Figure 4A): presence of spontaneous depolarization; EFP arrhythmic waveforms (hiPS-CMs monolayer; 100 nM): sustained waveforms of tachyarrhythmia, and TdP-like polymorphic waveforms; also recorded: increase in beats frequency and fibrillation-like pattern; EFP frequency (hiPS-CMs monolayer; 100 nM, 37 °C, vehicle 0.2 ± 0.1 Hz, n = 5, mean ± SEM, significant): 0.7 ± 0.1 Hz; average interval between CaT (hiPS-CMs; 37 °C, vehicle 3.3 ± 1.7 sec, n = 8, mean ± SEM): 4.9 ± 2.2 s; CaT amplitude (hiPS-CMs; F/F0 (Figure S4D), vehicle 1.8 ± 0.2, n = 8, mean ± SEM): 0.8 ± 0.2; cytoplasmic Ca^2+ handling (integration of Ca^2+ signals) (hiPS-CMs; Figure S4G): non-significant decrease; variability of CaT intervals (hiPS-CMs; Poincaré plot, Figure S4B): great variability; kinetics of the CaT decay phase (hiPS-CMs; tau of decay, Figure S4F): no alterations; CaT time to peak (hiPS-CMs; vehicle 1.1 ± 0.1 s, n = 8, mean ± SEM): 2.2 ± 0.4 s; QT interval in ECG (rabbit heart): prolongs the QT interval
